For experiment [1], the system named is HeLa wt cells. As to the kind of experiment: Immunofluorescence of GRASP55 and LC3. The experiment is classed as cell-based. The note with it: 6 h; BafA1 10 nM. On the procedure: (§1) For immunofluorescence microscopy, HeLa cells were seeded on glass coverslips in 24-well plates. After treatment, cells were fixed in 4% paraformaldehyde for 15 min on ice, quenched with 50 mM NH4Cl for 15 min and permeabilized with 50 µg/mL digitonin (Sigma-Aldrich, St. Louis, MO, USA, #D141) for 5 min. Fixed samples were blocked with 3% BSA (Roth, Karlsruhe, Germany, #8076) for 30 min or overnight and incubated with primary antibodies diluted in 3% BSA for 2 h. Samples were then washed three times with DPBS, incubated with the appropriate secondary antibodies diluted in 3% BSA for 30 min and washed three times with DPBS. Afterwards, cells were embedded in ProLong Glass Antifade Mountant (Thermo Fisher Scientific, Waltham, MA, USA, #P36980) containing 1 µg/mL DAPI (Roth, Karlsruhe, Germany, #6335.1). Images were recorded with an Axio Observer 7 fluorescence microscope (Carl Zeiss Microscopy, Oberkochen, Germany) using a 40x/1,4 Oil DIC M27 Plan-Apochromat objective (Carl Zeiss Microscopy, Oberkochen, Germany) and an ApoTome 2 (Carl Zeiss Microscopy, Oberkochen, Germany).

The subject of experiment [2] is HeLa wt cells. As to the kind of experiment: Immunofluorescence of LC3 and LAMP1. Format: cell-based. The note with it: 2 h; prodigiosin 100 nM, BafA1 10 nM. On the procedure:
as §1

On to `CO/C1=C\C(C)=C\[C@@H](C)[C@@H](O)[C@@H](C)C/C(C)=C/C=C/[C@H](OC)[C@@H]([C@@H](C)[C@@H](O)[C@H](C)[C@@]2(O)C[C@@H](O)[C@H](C)[C@@H](C(C)C)O2)OC1=O` [BafA1, bafilomycin A1, reference compound], for which, in experiment [1], the “co-localization of LC3 and GRASP55” value is on record as “no significant increase”; the “number of LC3 dots” value is “enriched”. In experiment [2], the LC3-positive structures entry is reported as “only minor”; the “co-localization of LC3- and LAMP1-positive structures” value is listed as “comparatively low”.

The values are drawn from publication PMC10552397 (Cell Communication and Signaling : CCS, 2023).
